Consider 18 compounds from patent US9499538B2, “Estrogen receptor modulators and uses thereof” (Seragon Pharmaceuticals, Inc., priority 2012, dated 2016).

One test concerns MCF-7 cells. The test is described as follows: Breast Cancer Cell Viability Assays (MCF-7, CellTiter-Glo). To be noted: 5 days' compound exposure; for IC50: Homo sapiens, MCF7, 120 h. It is filed as cell-based. The essentials: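 Percent viability, background-subtracted against untreated wells, was taken from CellTiter-Glo luminescence after 5 days' exposure of MCF-7 cells. Compounds were tested at eleven semilog concentrations, final 0.3–0.000003 μM, in RPMI containing 10% FBS.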
(In general: ATP-based viability assays read luminescence as a measure of living cells.)

A further test deals with T1, ER-α in MCF-7 cells (Homo sapiens, UniProt P03372).
T1 construct: endogenous in cells; host or cells: MCF-7
T1 sequence (P03372 1-595): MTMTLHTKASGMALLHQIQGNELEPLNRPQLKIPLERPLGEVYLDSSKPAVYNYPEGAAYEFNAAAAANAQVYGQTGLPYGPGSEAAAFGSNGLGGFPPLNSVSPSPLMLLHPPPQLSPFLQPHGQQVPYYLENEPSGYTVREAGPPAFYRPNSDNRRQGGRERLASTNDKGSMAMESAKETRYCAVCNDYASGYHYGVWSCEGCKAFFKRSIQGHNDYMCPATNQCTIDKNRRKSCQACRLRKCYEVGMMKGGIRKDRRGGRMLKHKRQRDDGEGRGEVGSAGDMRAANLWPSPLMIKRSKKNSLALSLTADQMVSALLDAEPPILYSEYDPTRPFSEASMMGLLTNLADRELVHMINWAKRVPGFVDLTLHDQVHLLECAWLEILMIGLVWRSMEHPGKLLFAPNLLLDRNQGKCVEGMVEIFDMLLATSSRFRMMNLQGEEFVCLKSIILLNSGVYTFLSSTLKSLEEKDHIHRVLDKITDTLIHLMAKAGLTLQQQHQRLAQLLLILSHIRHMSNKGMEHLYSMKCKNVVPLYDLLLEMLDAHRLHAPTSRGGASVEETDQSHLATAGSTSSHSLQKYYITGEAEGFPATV
Description: Breast Cancer Cell ER-α In Cell Western Assay (SP1). The class given is cell-based. Conditions: 4 or 24 hr post compound addition; for Emax: MCF7, SP1 antibody, read-out: ER-α In Cell Western Assay (SP1) Max Response; for DC50: SP1 antibody, read-out: ER-α In Cell Western Assay (SP1) IC50. The procedure, abridged:
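ER-α levels quantified by in-cell western: SP1 signal normalised to DRAQ5 DNA stain, relative to untreated cells (% ER). Compounds at 0.3–0.000003 μM final, 11-point semilog series, 4 or 24 h exposure of MCF-7 cells grown in charcoal-stripped serum.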

As to `CC/C(=C(/c1ccc(/C=C/C(=O)O)cc1)c1ccc2[nH]ncc2c1)c1ccc(C#N)cc1F` [Example 151, (E)-3-(4-((E)-2-(4-Cyano-2-fluorophenyl)-1-(1H-indazol-5-yl)but-1-en-1-yl)phenyl)acrylic acid], in the test on MCF-7 cells, the “MCF7 Viability Assay Max Response” value was “++ (++ = a single % value ≧ 40%)” and the IC50 (commonly the concentration that inhibits the measured activity by half) was not above 100 nM. On ER-α in MCF-7 cells, the Emax is not below 40% and the DC50 was not above 100 nM.

Take `O=C(O)/C=C/c1ccc(/C(=C(\c2ccc(F)cc2Cl)C2CC2)c2ccc3[nH]nc(F)c3c2)cc1` [Example 152, (E)-3-(4-((E)-2-(2-Chloro-4-fluorophenyl)-2-cyclopropyl-1-(3-fluoro-1H-indazol-5-yl)vinyl)phenyl)acrylic acid]: in the test on MCF-7 cells, the “MCF7 Viability Assay Max Response” value was “++ (++ = a single % value ≧ 40%)” and the IC50 is not above 100 nM. Besides, at ER-α in MCF-7 cells, the Emax was not below 40% and the DC50 is not above 100 nM.

Consider `O=C(O)/C=C/c1ccc(/C(=C(\c2ccccc2Cl)C2CC2)c2ccc3[nH]nc(F)c3c2)cc1` [Example 153, (E)-3-(4-((E)-2-(2-Chlorophenyl)-2-cyclopropyl-1-(3-fluoro-1H-indazol-5-yl)vinyl)phenyl)acrylic acid], for which, in the test on MCF-7 cells, the “MCF7 Viability Assay Max Response” value is given as “++ (++ = a single % value ≧ 40%)” and the IC50 was not above 100 nM. On ER-α in MCF-7 cells, the Emax is not below 40% and the DC50 is not above 100 nM.

For the compound `O=C(O)/C=C/c1ccc(/C(=C(\c2ccccc2F)C2CC2)c2ccc3[nH]nc(F)c3c2)cc1` [Example 154, (E)-3-(4-((E)-2-Cyclopropyl-1-(3-fluoro-1H-indazol-5-yl)-2-(2-fluorophenyl)vinyl)phenyl)acrylic acid], in the test with MCF-7 cells, the “MCF7 Viability Assay Max Response” value is listed as “++ (++ = a single % value ≧ 40%)” and the concentration for half-maximal inhibition (IC50) was not above 100 nM. Also, at ER-α in MCF-7 cells, the Emax is not below 40% and the DC50 is not above 100 nM.

For `N#Cc1cc(F)ccc1/C(=C(\c1ccc(/C=C/C(=O)O)cc1)c1ccc2[nH]nc(F)c2c1)C1CC1` [Example 155, (E)-3-(4-((E)-2-(2-Cyano-4-fluorophenyl)-2-cyclopropyl-1-(3-fluoro-1H-indazol-5-yl)vinyl)phenyl)acrylic acid], in the test on MCF-7 cells, the “MCF7 Viability Assay Max Response” value is “++ (++ = a single % value ≧ 40%)” and the IC50 was not above 100 nM. On ER-α in MCF-7 cells, the Emax was not below 40% and the DC50 was not above 100 nM.

`N#Cc1ccc(/C(=C(\c2ccc(/C=C/C(=O)O)cc2)c2ccc3[nH]nc(F)c3c2)C2CC2)c(F)c1` [Example 156, (E)-3-(4-((E)-2-(4-Cyano-2-fluorophenyl)-2-cyclopropyl-1-(3-fluoro-1H-indazol-5-yl)vinyl)phenyl)acrylic acid]: in the test with MCF-7 cells, the “MCF7 Viability Assay Max Response” value was “++ (++ = a single % value ≧ 40%)” and the IC50 was not above 100 nM. Besides, at ER-α in MCF-7 cells, the Emax is not below 40% and the DC50 is not above 100 nM.

Take `O=C(O)/C=C/c1ccc(/C(=C(\c2ccncc2Cl)C2CC2)c2ccc3[nH]nc(F)c3c2)cc1` [Example 157, (E)-3-(4-((E)-2-(3-Chloropyridin-4-yl)-2-cyclopropyl-1-(3-fluoro-1H-indazol-5-yl)vinyl)phenyl)acrylic acid]: in the test on MCF-7 cells, the “MCF7 Viability Assay Max Response” value is “++ (++ = a single % value ≧ 40%)” and the IC50 is not above 100 nM. For the same compound, at ER-α in MCF-7 cells, the Emax was not below 40% and the DC50 was not above 100 nM.

For `COc1cnc(/C(=C(\c2ccc(/C=C/C(=O)O)cc2)c2ccc3[nH]nc(F)c3c2)C2CC2)c(C)c1` [Example 158, (E)-3-(4-((E)-2-Cyclopropyl-1-(3-fluoro-1H-indazol-5-yl)-2-(5-methoxy-3-methylpyridin-2-yl)vinyl)phenyl)acrylic acid], in the test with MCF-7 cells, the “MCF7 Viability Assay Max Response” value is “++ (++ = a single % value ≧ 40%)” and the IC50 is not above 100 nM. At ER-α in MCF-7 cells, the Emax was not below 40% and the DC50 is not above 100 nM.

For `O=C(O)/C=C/c1cnc(/C(=C(\c2ccccc2)C2CCC2)c2ccc3[nH]nc(F)c3c2)cn1` [Example 159, (E)-3-(5-((Z)-2-Cyclobutyl-1-(3-fluoro-1H-indazol-5-yl)-2-phenylvinyl)pyrazin-2-yl)acrylic acid], in the test with MCF-7 cells, the “MCF7 Viability Assay Max Response” value is given as “++ (++ = a single % value ≧ 40%)” and the 50% inhibitory concentration (IC50) is not above 100 nM. Also, at ER-α in MCF-7 cells, the Emax is not below 40% and the DC50 was not above 100 nM.

In the case of `O=C(O)/C=C/c1ccc(/C(=C(\c2ccccc2)C2CCC2)c2ccc3[nH]nc(F)c3c2)nc1` [Example 160, (E)-3-(6-((Z)-2-Cyclobutyl-1-(3-fluoro-1H-indazol-5-yl)-2-phenylvinyl)pyridin-3-yl)acrylic acid], in the test on MCF-7 cells, the “MCF7 Viability Assay Max Response” value is “++ (++ = a single % value ≧ 40%)” and the half-inhibitory concentration (IC50) was not above 100 nM. On ER-α in MCF-7 cells, the Emax is not below 40% and the DC50 was not above 100 nM.

Consider `O=C(O)/C=C/c1ncc(/C(=C(\c2ccccc2)C2CCC2)c2ccc3[nH]nc(F)c3c2)cc1F` [Example 161, (E)-3-(5-((Z)-2-Cyclobutyl-1-(3-fluoro-1H-indazol-5-yl)-2-phenylvinyl)-3-fluoropyridin-2-yl)acrylic acid], for which, in the test with MCF-7 cells, the “MCF7 Viability Assay Max Response” value is “++ (++ = a single % value ≧ 40%)” and the 50% inhibitory concentration (IC50) was not above 100 nM. Also, on ER-α in MCF-7 cells, the Emax was not below 40% and the DC50 was not above 100 nM.

Consider `O=C(O)/C=C/c1ncc(/C(=C(\c2ccccc2)C2CCC2)c2ccc3[nH]nc(F)c3c2)cn1` [Example 162, (E)-3-(5-((Z)-2-Cyclobutyl-1-(3-fluoro-1H-indazol-5-yl)-2-phenylvinyl)pyrimidin-2-yl)acrylic acid], for which, in the test with MCF-7 cells, the “MCF7 Viability Assay Max Response” value is “++ (++ = a single % value ≧ 40%)” and the concentration for half-maximal inhibition (IC50) is more than 100 nM. For the same compound, on ER-α in MCF-7 cells, the Emax is not below 40% and the DC50 was more than 100 nM.

In the case of `CC/C(=C(/c1ccc(/C=C/C(=O)O)cc1)c1cccc2[nH]nc(F)c12)c1ccc(F)cc1Cl` [Example 163, (E)-3-(4-((E)-2-(2-Chloro-4-fluorophenyl)-1-(3-fluoro-1H-indazol-4-yl)but-1-en-1-yl)phenyl)acrylic acid], in the test with MCF-7 cells, the “MCF7 Viability Assay Max Response” value is given as “++ (++ = a single % value ≧ 40%)” and the 50% inhibitory concentration (IC50) is not above 100 nM. Moreover, at ER-α in MCF-7 cells, the Emax was not below 40% and the DC50 is not above 100 nM.

As to `COc1nc(/C=C/C(=O)O)ccc1/C(=C(\c1ccccc1)C1CCC1)c1ccc2[nH]nc(F)c2c1` [Example 164, (E)-3-(5-((Z)-2-Cyclobutyl-1-(3-fluoro-1H-indazol-5-yl)-2-phenylvinyl)-6-methoxypyridin-2-yl)acrylic acid], in the test on MCF-7 cells, the “MCF7 Viability Assay Max Response” value is recorded as “++ (++ = a single % value ≧ 40%)” and the half-maximal inhibitory concentration (IC50) was not above 100 nM. Also, at ER-α in MCF-7 cells, the Emax is not below 40% and the DC50 was not above 100 nM.

As to `COc1cc(/C(=C(\c2ccccc2)C2CCC2)c2ccc3[nH]nc(F)c3c2)cnc1/C=C/C(=O)O` [Example 165, (E)-3-(5-((Z)-2-Cyclobutyl-1-(3-fluoro-1H-indazol-5-yl)-2-phenylvinyl)-3-methoxypyridin-2-yl)acrylic acid], in the test on MCF-7 cells, the “MCF7 Viability Assay Max Response” value is given as “++ (++ = a single % value ≧ 40%)” and the half-maximal inhibitory concentration (IC50) is more than 100 nM. At ER-α in MCF-7 cells, the Emax is not below 40% and the DC50 is not above 100 nM.

With `O=C(O)/C=C/c1ccc(/C(=C(\c2ccccc2)C2CCC2)c2ccc3[nH]nc(F)c3c2)c(Cl)c1` [Example 166, (E)-3-(3-Chloro-4-((Z)-2-cyclobutyl-1-(3-fluoro-1H-indazol-5-yl)-2-phenylvinyl)phenyl)acrylic acid], in the test with MCF-7 cells, the “MCF7 Viability Assay Max Response” value was “++ (++ = a single % value ≧ 40%)” and the 50% inhibitory concentration (IC50) was not above 100 nM. At ER-α in MCF-7 cells, the Emax is not below 40% and the DC50 was not above 100 nM.

As to `O=C(O)/C=C/c1ccc(/C(=C(\c2ccccc2)C2CCC2)c2ccc3[nH]nc(F)c3c2)cc1Cl` [Example 167, (E)-3-(2-Chloro-4-((Z)-2-cyclobutyl-1-(3-fluoro-1H-indazol-5-yl)-2-phenylvinyl)phenyl)acrylic acid], in the test on MCF-7 cells, the “MCF7 Viability Assay Max Response” value is reported as “++ (++ = a single % value ≧ 40%)” and the IC50 was not above 100 nM. In addition, on ER-α in MCF-7 cells, the Emax was not below 40% and the DC50 was not above 100 nM.

Consider `O=C(O)/C=C/c1ccc(/C(=C(\c2ccc(F)cc2Cl)C2CCC2)c2ccc3[nH]nc(F)c3c2)cn1` [Example 168, (E)-3-(5-((Z)-2-(2-Chloro-4-fluorophenyl)-2-cyclobutyl-1-(3-fluoro-1H-indazol-5-yl)vinyl)pyridin-2-yl)acrylic acid], for which, in the test with MCF-7 cells, the “MCF7 Viability Assay Max Response” value is given as “++ (++ = a single % value ≧ 40%)” and the 50% inhibitory concentration (IC50) is not above 100 nM. Moreover, on ER-α in MCF-7 cells, the Emax was not below 40% and the DC50 was not above 100 nM.
